Consider 21 compounds from patent US8563542B2 (Cyclacel Limited, priority 2007, dated 2013).

Some results are limits rather than exact numbers.

The IC50 is the concentration needed to halve the response being measured.

Sequence of PLK1 (P53350 whole entry): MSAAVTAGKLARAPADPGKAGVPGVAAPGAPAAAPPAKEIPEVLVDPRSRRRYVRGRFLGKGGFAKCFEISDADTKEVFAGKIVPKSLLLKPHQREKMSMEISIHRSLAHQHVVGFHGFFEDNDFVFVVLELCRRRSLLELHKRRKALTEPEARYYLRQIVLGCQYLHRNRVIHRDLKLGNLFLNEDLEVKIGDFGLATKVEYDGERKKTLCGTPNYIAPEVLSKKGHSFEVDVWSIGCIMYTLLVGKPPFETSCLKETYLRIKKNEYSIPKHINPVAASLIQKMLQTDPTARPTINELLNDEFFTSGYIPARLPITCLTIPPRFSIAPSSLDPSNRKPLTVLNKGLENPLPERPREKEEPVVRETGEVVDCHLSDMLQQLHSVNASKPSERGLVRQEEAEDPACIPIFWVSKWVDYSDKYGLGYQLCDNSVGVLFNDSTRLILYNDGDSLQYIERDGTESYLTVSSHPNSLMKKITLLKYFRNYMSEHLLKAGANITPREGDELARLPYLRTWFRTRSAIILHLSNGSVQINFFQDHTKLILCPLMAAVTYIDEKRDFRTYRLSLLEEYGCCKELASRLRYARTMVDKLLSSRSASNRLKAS

One assay concerns the target PLK1 (Homo sapiens, UniProt P53350). Put plainly: PLK1 protein kinase assay (CDC25C phosphorylation, [γ-32P]-ATP). Type of assay: biochemical.
Details: not given
`COc1cc(C(=O)NC2CCN(C)CC2)ccc1Nc1ncc2c(n1)N(C1CCCC1)CC(C)C(=O)N2C` (stereo not drawn) [compound 20, 4-(9-Cyclopentyl-5,7-dimethyl-6-oxo-6,7,8,9-tetrahydro-5H-pyrimido[4,5-b][1,4]diazepin-2-ylamino)-3-methoxy-N-(1-methyl-piperidin-4-yl)-benzamide] gave an IC50 of under 0.1 µM. Regarding `COc1cc(C(=O)NC2CCN(C)CC2)ccc1Nc1ncc2c(n1)N(C1CCCC1)C(C)CC(=O)N2C` (stereo not drawn) [compound 33, 4-(9-Cyclopentyl-5,8-dimethyl-6-oxo-6,7,8,9-tetrahydro-5H-pyrimido[4,5-b][1,4]diazepin-2-ylamino)-3-methoxy-N-(1-methyl-piperidin-4-yl)-benzamide], the IC50 was under 1 µM.

The assay is the same for the next values; noted with them: Table 1; read-out: PLK1 IC50.
In the case of `COc1cc(C(=O)O)ccc1Nc1ncc2c(n1)N(C1CCCC1)C(C)CC(=O)N2` (stereo not drawn) [compound 3, 4-(9-Cyclopentyl-8-methyl-6-oxo-6,7,8,9-tetrahydro-5H-pyrimido[4,5-b][1,4]diazepin-2-ylamino)-3-methoxy-benzoic acid], the concentration for half-maximal inhibition (IC50) was under 10 µM. The same measure, in the same setting: with `COc1cc(C(=O)O)ccc1Nc1ncc2c(n1)N(C1CCCC1)C(C)CC(=O)N2C` (stereo not drawn) [compound 4, 4-(9-Cyclopentyl-5,8-dimethyl-6-oxo-6,7,8,9-tetrahydro-5H-pyrimido[4,5-b][1,4]diazepin-2-ylamino)-3-methoxy-benzoic acid] the figure was under 10 µM. Same read-out and setting: with `COc1cc(C(=O)O)ccc1Nc1ncc2c(n1)N(C1CCCCC1)C(C)CC(=O)N2` (stereo not drawn) [compound 5, 4-(9-Cyclohexyl-8-methyl-6-oxo-6,7,8,9-tetrahydro-5H-pyrimido[4,5-b][1,4]diazepin-2-ylamino)-3-methoxy-benzoic acid] the figure was under 10 µM; with `O=C1CCN(C2CCCCC2)c2nc(Nc3ccc(O)cc3)ncc2N1` [compound 10, 9-Cyclohexyl-2-(4-hydroxy-phenylamino)-5,7,8,9-tetrahydro-pyrimido[4,5-b][1,4]diazepin-6-one], under 10 µM; with `CC1CN(C2CCCC2)c2nc(Nc3ccc(O)cc3)ncc2NC1=O` (stereo not drawn) [compound 11, 9-Cyclopentyl-2-(4-hydroxy-phenylamino)-7-methyl-5,7,8,9-tetrahydro-pyrimido[4,5-b][1,4]diazepin-6-one], under 10 µM. On the same count and under the same terms, with `CC1CC(=O)N(C)c2cnc(Nc3ccc(O)cc3)nc2N1C1CCCC1` (stereo not drawn) [compound 13, 9-Cyclopentyl-2-(4-hydroxy-phenylamino)-5,8-dimethyl-5,7,8,9-tetrahydro-pyrimido[4,5-b][1,4]diazepin-6-one] the figure was under 10 µM; with `COc1cc(C(=O)NC2CCN(C)CC2)ccc1Nc1ncc2c(n1)N(C1CCCC1)CC(C)C(=O)N2` (stereo not drawn) [compound 17, 4-(9-Cyclopentyl-7-methyl-6-oxo-6,7,8,9-tetrahydro-5H-pyrimido[4,5-b][1,4]diazepin-2-ylamino)-3-methoxy-N-(1-methyl-piperidin-4-yl)-benzamide], under 10 µM. `COc1cc(C(=O)NC2CCN(C)CC2)ccc1Nc1ncc2c(n1)N(C1CCCC1)C(C(C)C)CC(=O)N2` (stereo not drawn) [compound 19, 4-(9-Cyclopentyl-8-isopropyl-6-oxo-6,7,8,9-tetrahydro-5H-pyrimido[4,5-b][1,4]diazepin-2-ylamino)-3-methoxy-N-(1-methyl-piperidin-4-yl)-benzamide]: the IC50 was under 10 µM. On the same count and under the same terms, the value for `COc1cc(C(=O)NC2CCN(C)CC2)ccc1Nc1ncc2c(n1)N(C1CCCC1)C(C(C)C)CC(=O)N2C` (stereo not drawn) [compound 23, 4-(9-Cyclopentyl-8-isopropyl-5-methyl-6-oxo-6,7,8,9-tetrahydro-5H-pyrimido[4,5-b][1,4]diazepin-2-ylamino)-3-methoxy-N-(1-methyl-piperidin-4-yl)-benzamide] was under 10 µM; that for `CCC(CC)N1CCC(=O)N(C)c2cnc(Nc3ccc(C(=O)NC4CCN(C)CC4)cc3OC)nc21` [compound 24, 4-[9-(1-Ethyl-propyl)-5-methyl-6-oxo-6,7,8,9-tetrahydro-5H-pyrimido[4,5-b][1,4]diazepin-2-ylamino]-3-methoxy-N-(1-methyl-piperidin-4-yl)-benzamide] was under 10 µM; that for `COc1cc(C(=O)NC2CCN(C)CC2)ccc1Nc1ncc2c(n1)N(C1CCOCC1)CCC(=O)N2C` [compound 26, 3-Methoxy-4-[5-methyl-6-oxo-9-(tetrahydro-pyran-4-yl)-6,7,8,9-tetrahydro-5H-pyrimido[4,5-b][1,4]diazepin-2-ylamino]-N-(1-methyl-piperidin-4-yl)-benzamide] was under 1 µM. On the same count and under the same terms, with `CCN1C(=O)C(C)CN(C2CCCC2)c2nc(Nc3ccc(C(=O)NC4CCN(C)CC4)cc3OC)ncc21` (stereo not drawn) [compound 28, 4-(9-Cyclopentyl-5-ethyl-7-methyl-6-oxo-6,7,8,9-tetrahydro-5H-pyrimido[4,5-b][1,4]diazepin-2-ylamino)-3-methoxy-N-(1-methyl-piperidin-4-yl)-benzamide] the figure was under 1 µM; with `COc1cc(C(=O)NC2CCN(C)CC2)ccc1Nc1ncc2c(n1)N(Cc1ccccc1)CCC(=O)N2C` [compound 29, 4-(9-Benzyl-5-methyl-6-oxo-6,7,8,9-tetrahydro-5H-pyrimido[4,5-b][1,4]diazepin-2-ylamino)-3-methoxy-N-(1-methyl-piperidin-4-yl)-benzamide], under 10 µM; with `COc1cc(C(=O)NC2CCN(C)CC2)ccc1Nc1ncc2c(n1)N(c1ccccc1)CCC(=O)N2C` [compound 30, 3-Methoxy-4-(5-methyl-6-oxo-9-phenyl-6,7,8,9-tetrahydro-5H-pyrimido[4,5-b][1,4]diazepin-2-ylamino)-N-(1-methyl-piperidin-4-yl)-benzamide], under 1 µM. On the same count and under the same terms, with `COc1cc(C(=O)NC2CCN(C)CC2)ccc1Nc1ncc2c(n1)N(C1CCCC1)CC1(CC1)C(=O)N2C` [compound 31] the figure was under 0.1 µM; with `COc1cc(C(=O)NC2CCN(C)CC2)ccc1Nc1ncc2c(n1)N(C1CCCC1)C(C)CC(=O)N2` (stereo not drawn) [compound 34, 4-(9-Cyclopentyl-8-methyl-6-oxo-6,7,8,9-tetrahydro-5H-pyrimido[4,5-b][1,4]diazepin-2-ylamino)-3-methoxy-N-(1-methyl-piperidin-4-yl)-benzamide], under 1 µM. Take `COc1cc(C(=O)NC2CCN(C)CC2)ccc1Nc1ncc2c(n1)N(C1CCCCC1)C(C)CC(=O)N2` (stereo not drawn) [compound 35, 4-(9-Cyclohexyl-8-methyl-6-oxo-6,7,8,9-tetrahydro-5H-pyrimido[4,5-b][1,4]diazepin-2-ylamino)-3-methoxy-N-(1-methyl-piperidin-4-yl)-benzamide]: the half-maximal inhibitory concentration (IC50) was under 1 µM. The same measure, in the same setting: the value for `COc1cc(C(=O)NC2CCN(C)CC2)ccc1Nc1ncc2c(n1)N(C1CCCC1)CCC(=O)N2` [compound 36, 4-(9-Cyclopentyl-6-oxo-6,7,8,9-tetrahydro-5H-pyrimido[4,5-b][1,4]diazepin-2-ylamino)-3-methoxy-N-(1-methyl-piperidin-4-yl)-benzamide] was under 10 µM. Still for that read-out and setting: with `CC1CC(=O)Nc2cnc(Nc3ccc(C(=O)NC4CCN(C)CC4)cc3)nc2N1C1CCCC1` (stereo not drawn) [compound 38, 4-(9-Cyclopentyl-8-methyl-6-oxo-6,7,8,9-tetrahydro-5H-pyrimido[4,5-b][1,4]diazepin-2-ylamino)-N-(1-methyl-piperidin-4-yl)-benzamide] the figure was under 1 µM.
